In patent publication US6642386B2, “N-(4-carbamimidoyl-phenyl)-glycine derivatives” (Hoffmann-La Roche Inc., priority 2002, dated 2003):
Converted amounts (≈) assume the structure as drawn. Where two headings read alike, the source gives them in different places.

Key:
[1] = Solubility (phosphate buffer); assay type: physicochemical
human plasma = experiment: prothrombin time (PT) clotting test; assay type: biochemical; settings: inhibitor concentration which brought about a doubling of the PT clotting time, Innovin (recombinant human tissue factor)
Experimental: The activity of the low molecular weight substances can, moreover, be characterized in the “prothrombi” time” (PT) clotting test. The substances are prepared as a 10 mM solution in DMSO or DMSO/0.1M HCl (DHCl) and thereafter made up to the desired dilution in the same solvent. Thereafter, 0.25 ml of human plasma (obtained from whole blood anticoagulated with 1/10 volume of 108 mM Na citrate) was placed in the instrument-specific sample container. In each case 5 μl of each dilution of the substance-dilution series was then mixed with the plasma provided. This plasma/inhibitor mixture was incubated at 37° C. for 2 minutes. Thereafter, there were pipetted to the semi-automatic device (ACL, Automated Coagulation Laboratory (Instrument Laboratory)) 50 μl of plasma/inhibitor mixture in the measurement container. The clotting reaction was initiated by the addition of 0.1 ml of Innovin® (recombinant human tissue factor combined with calcium buffer and synthetic phospholipids(Dade Behring®, Inc.). The time up to the fibrin cross-linking was determined photooptically from the ACL. The inhibitor concentration, which brought about a doubling of the PT clotting time, was determined by means of a graph.

Solubility (phosphate buffer, pH 6.5) ([1]; pH 6.5)	melting point	solubility ([1]; aqueous buffer, pH 5 (stated in the cell), read-out: Solubility (phosphate buffer, pH 5))	solubility ([1]; pH 6.5, aqueous buffer, read-out: Solubility (phosphate buffer, pH 6.5))	Compound	concentration doubling PT clotting time (human plasma)
2.2 mg/ml	–	–	–	CCOc1cc(O[C@@H]2CCCN(C)C2)c(F)c([C@@H](Nc2ccc(C(=N)N)cc2)C(=O)O)c1 (racemic) [Example 2.3, (RS)- and (SR)-(4-carbamimidoyl-phenylamino)-[5-ethoxy-2-fluoro-3-[(RS)-1-methyl-piperidin-3-yloxy]-phenyl]-acetic acid]	2.1 µM
–	232 °C	–	–	CCOc1cc(OCC2CCN(C)CC2)c(F)c(C(Nc2ccc(C(=N)N)cc2)C(=O)O)c1 (racemic) [Example 6.3, (RS)-(4-carbamimidoyl-phenylamino)-[5-ethoxy-2-fluoro-3-(1-methyl-piperidin-4-ylmethoxy)-phenyl]-acetic acid]	–
–	–	3300 µg/mL (≈ 7.42 mM)	–	CCOc1cc(OC2CCN(C)CC2)c(F)c(C(Nc2ccc(C(=N)N)cc2)C(=O)O)c1 (racemic) [Example 13.3, (RS)-(4-carbamimidoyl-phenylamino)-[5-ethoxy-2-fluoro-3-(1-methyl-piperidin-4-yloxy)-phenyl]-acetic acid]	3.6 µM
–	–	–	5700 µg/mL (≈ 12.8 mM)	CCOc1cc(OC2CCN(C)CC2)c(F)c([C@@H](Nc2ccc(C(=N)N)cc2)C(=O)O)c1 [Example 13.8, (R)-(4-carbamimidoyl-phenylamino)-[5-ethoxy-2-fluoro-3-(1-methyl-piperidin-4-yloxy)-phenyl]-acetic acid]	1.6 µM
